How the values were obtained:
Anabaena AHAS = test: In vitro AHAS assay; format: biochemical, Anabaena PCC7120; details: 100 μM
Method: (§1) AHAS is the target site of both PURSUIT® imazethapyr and OUST® sulfometuron methyl herbicides. To determine if resistance to the herbicides is due to a natural resistance to inhibition of the acetohydroxyacid synthase enzymes from the cyanobacteria, or if it is due to alternative mechanisms (e.g. lack of entry into the cell), the in vitro activity of the AHAS enzyme in the presence of the herbicides was tested.
(§2) AHAS assays were performed with slight modification as described by Singh et. al (Singh B K, Stidham M A, Shaner D L, 1988, Assay for acetohydroxyacid synthase from plants. Anal Biochem 171: 173-179).
(§3) Synechocystis PCC6803 and Anabaena PCC7120 were cultured in 1.5 L of BG-11 media. Cells were collected by centrifuge and stored frozen at −80° C. Frozen cells were thawed and placed in a 30 mL Bead Beater cell disruptor chamber (BioSpec Corp Bartlesville, Okla.). Seven mL of acid washed sand was added. The chamber was filled with 2× ASHA assay buffer, consisting of 100 mM HEPES pH7.0, 200 mM pyruvate, 20 mM MgCl2, 2 mM TPP (Thiamine pyrophosphate) and 100 μM FAD (flavin adenine dinucleotide).
(§4) The Bead Beater cell disruptor was packed in ice and turned on for 10 seconds, followed by cooling for 3 minutes. This cycle was repeated five times. The extract was transferred into a centrifuge tube, and spun in a Beckman SA20 (Beckman, Fullerton, Calif.) rotor for 15 minutes at 17,000 rpms. […]

Anabaena PCC7120 = test: In vivo growth in BG-11 media with commercial herbicides; format: cell-based; details: 100 μM, one week of culture in BG-11 media
Method: (§5) In vivo resistance of cyanobacteria to PURSUIT® imazethapyr and OUST® sulfometuron methyl. As a preliminary matter, Synechocystis PCC6803 and Anabaenia PCC7120 were tested for susceptibility to PURSUIT® imazethapyr and OUST® sulfometuron methyl. AHAS genes which are resistant to these herbicides are excellent candidates for transformation in plant plastomes and nuclear genomes. Such transformants can be used in a weed control strategy using a combination of transgenic herbicide resistant crops and herbicides.
(§6) In vivo testing of Synechocystis PCC6803 and Anabaena PCC7120 was done by culturing the organisms in varying concentrations of the commercial herbicides. […] For relative comparison purposes a concentration of 1 μM PURSUIT® imazethapyr in agar media is lethal to Arabidopsis plants.

Synechocystis PCC6803 = test: as above; format: cell-based; details: 100 μM, one week of culture in BG-11 media
Method: as §5, §6

[1] = test system: AHAS enzyme of pACBC222 line G-981208-1.1; test: AHAS enzyme assay of transplastomic tobacco line; format: biochemical; details: line sprayed with 18 g/ha PURSUIT imazethapyr; assay in the presence of the herbicide
Arabidopsis plants = test: Lethality to Arabidopsis plants in agar media; format: in vivo
Method: as §6

Wild type (W-38) tobacco = test: PURSUIT imazethapyr spray test, wild type tobacco; format: in vivo; details: 18 g/ha, 5 weeks after the test
Method: (§7) Observations and photos (FIG. 8) of the PURSUIT® imazethapyr spray test were taken 5 weeks after the test was conducted. […] Leaves assumed a thin, spiny form.

p116 line G-981208-1.1 = test: PURSUIT imazethapyr spray test, p116 line; format: in vivo, tobacco
Method: as §7

Synechocystis AHAS = test: In vitro AHAS assay; format: biochemical, Synechocystis PCC6803; details: 100 μM
Method: as §1, §2, §3, §4

[2] = test system: E. coli M1262 expressing the cyanobacterial ahas gene; test: Growth on minimal media of E. coli M1262 expressing the cyanobacterial ahas gene; format: cell-based
Excerpt: To confirm that these plasmids carry functional AHAS sequences, plasmid DNA from each of the ten rescued colonies was transformed into the E. coli strain M1262. (leuB6, ilv1614, ilvH612, λ^−, relA1, spoT1, ilvB619, ilvG603, ilfG605(am), thi-1) (Genetics Stock Center, Yale University). This strain of E. coli is lacking in AHAS. […] The ahas gene can therefore be used for achieving herbicide tolerance in crops by transformation into the nuclear or plastidic genome.

[3] = test system: p111 and p112 transplastomic tobacco lines; test: PURSUIT imazethapyr spray test, p111 and p112 lines; format: in vivo; details: 18 g/ha, 5 weeks after the test
Method: as §7

In the case of CCc1cnc(C2=NC(C)(C(C)C)C(=O)N2)c(C(=O)O)c1 (stereo not shown) [PURSUIT® imazethapyr, imazethapyr], the “inhibition of AHAS enzyme” value (Anabaena AHAS) is reported as “No significant inhibition”, the inhibition of growth (Anabaena PCC7120) is reported as “No inhibition of growth” and the inhibition of growth (Synechocystis PCC6803) is reported as “No inhibition of growth”. For the same compound, the “increase in AHAS enzyme resistance compared with AHAS enzyme from unsprayed wild type tobacco” value [1] was about 20%, the “concentration lethal to Arabidopsis plants” value (Arabidopsis plants) was 1 µM and the spray test observation (Wild type (W-38) tobacco) was “wide-spread leaf necrosis and stunting of growth”. The growth (p116 line G-981208-1.1; 18 g/ha, 5 weeks after the test) was “uninhibited”, the leaf damage (p116 line G-981208-1.1; 18 or 35 g/ha, 5 weeks after the test) was “no visible leaf damage” and the growth (p116 line G-981208-1.1; 35 g/ha, 5 weeks after the test) was “slight stunting”. For the same compound, the “effect on new shoots and morphology” value (p116 line G-981208-1.1; p116 line, prolific shooting and morphological abnormalities in new shoots) was “strong growth regulator”, the “inhibition of AHAS enzyme” value (Synechocystis AHAS) was “No significant inhibition” and the “growth on minimal media in the presence of the herbicide” value [2] was “capable of growing”. The spray test observation [3] was “wide-spread leaf necrosis and stunting of growth”.
